Laboratory results reported in patent US7585851B2, “3′-prodrugs of 2′-deoxy-β-L-nucleosides” (priority 2000, dated 2009).
≈ marks a conversion by molar mass, not a printed value. Where “and” joins values, the source holds several entries; their conditions need not be identical. Equal values may be shown once. Where a name gives a salt, the structure may show the parent alone. Read-outs that look alike come from different tables or passages of the source.

Assays:
[1] = monkey, in vivo, po
[2] = Solubility study in water (HPLC); settings: for Solubility (g/L) / Solubility (mol/L): in water
[3] = Bioavailability of the prodrugs of L-dC in monkeys, with and without L-dT; settings: for % BA (bioavailability of L-dC): estimated relative to AUC of L-dC (oral dose)
[4] = for Tlast: analyte = label
[5] = Day 25, analyte = label
[6] = tested on: cytosolic extracts of HepG2 cells; experiment: Steady state phosphorylation kinetics in HepG2 cytosolic extracts; format: biochemical, human
HepG2 cells [7] = experiment: Mitochondrial toxicity assay in HepG2 cells; format: cell-based, human; settings: human
[8] = Mitochondrial toxicity assay in HepG2 cells; format: cell-based, human; settings: human
[9] = biological target: virion-associated DNA polymerase of WHV (Woodchuck hepatitis B virus, UniProt P03160); experiment: biochemical
Sequence of virion-associated DNA polymerase of WHV (P03160 whole entry): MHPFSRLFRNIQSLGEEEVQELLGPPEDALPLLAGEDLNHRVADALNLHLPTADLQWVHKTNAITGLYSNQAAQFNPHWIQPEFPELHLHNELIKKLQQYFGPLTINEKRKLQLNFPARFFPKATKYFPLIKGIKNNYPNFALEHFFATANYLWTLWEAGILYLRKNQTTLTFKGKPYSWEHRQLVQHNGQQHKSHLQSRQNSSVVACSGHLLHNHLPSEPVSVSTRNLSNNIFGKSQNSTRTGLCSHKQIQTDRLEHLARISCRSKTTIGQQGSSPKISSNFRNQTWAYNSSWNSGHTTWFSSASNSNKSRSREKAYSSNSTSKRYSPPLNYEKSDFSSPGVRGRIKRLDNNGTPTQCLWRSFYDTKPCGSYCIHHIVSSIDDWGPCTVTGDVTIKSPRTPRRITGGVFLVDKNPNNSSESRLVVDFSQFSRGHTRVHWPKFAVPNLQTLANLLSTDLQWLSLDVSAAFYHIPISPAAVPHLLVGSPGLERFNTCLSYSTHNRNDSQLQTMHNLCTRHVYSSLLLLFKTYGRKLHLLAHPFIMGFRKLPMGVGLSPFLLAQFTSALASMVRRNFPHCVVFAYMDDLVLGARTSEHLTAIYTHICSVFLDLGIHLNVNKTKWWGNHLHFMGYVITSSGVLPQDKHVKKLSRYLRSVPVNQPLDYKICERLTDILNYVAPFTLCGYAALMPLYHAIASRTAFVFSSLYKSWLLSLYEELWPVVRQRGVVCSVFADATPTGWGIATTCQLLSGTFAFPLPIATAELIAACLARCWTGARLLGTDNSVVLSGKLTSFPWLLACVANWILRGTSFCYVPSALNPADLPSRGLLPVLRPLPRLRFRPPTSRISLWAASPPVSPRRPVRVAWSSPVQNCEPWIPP

human DNA polymerase γ [10] = biological target: T1, human DNA polymerase γ (Homo sapiens, UniProt P54098); settings: from Chang, et al. / Yao; cited from earlier work
T1 sequence (P54098 1-1239): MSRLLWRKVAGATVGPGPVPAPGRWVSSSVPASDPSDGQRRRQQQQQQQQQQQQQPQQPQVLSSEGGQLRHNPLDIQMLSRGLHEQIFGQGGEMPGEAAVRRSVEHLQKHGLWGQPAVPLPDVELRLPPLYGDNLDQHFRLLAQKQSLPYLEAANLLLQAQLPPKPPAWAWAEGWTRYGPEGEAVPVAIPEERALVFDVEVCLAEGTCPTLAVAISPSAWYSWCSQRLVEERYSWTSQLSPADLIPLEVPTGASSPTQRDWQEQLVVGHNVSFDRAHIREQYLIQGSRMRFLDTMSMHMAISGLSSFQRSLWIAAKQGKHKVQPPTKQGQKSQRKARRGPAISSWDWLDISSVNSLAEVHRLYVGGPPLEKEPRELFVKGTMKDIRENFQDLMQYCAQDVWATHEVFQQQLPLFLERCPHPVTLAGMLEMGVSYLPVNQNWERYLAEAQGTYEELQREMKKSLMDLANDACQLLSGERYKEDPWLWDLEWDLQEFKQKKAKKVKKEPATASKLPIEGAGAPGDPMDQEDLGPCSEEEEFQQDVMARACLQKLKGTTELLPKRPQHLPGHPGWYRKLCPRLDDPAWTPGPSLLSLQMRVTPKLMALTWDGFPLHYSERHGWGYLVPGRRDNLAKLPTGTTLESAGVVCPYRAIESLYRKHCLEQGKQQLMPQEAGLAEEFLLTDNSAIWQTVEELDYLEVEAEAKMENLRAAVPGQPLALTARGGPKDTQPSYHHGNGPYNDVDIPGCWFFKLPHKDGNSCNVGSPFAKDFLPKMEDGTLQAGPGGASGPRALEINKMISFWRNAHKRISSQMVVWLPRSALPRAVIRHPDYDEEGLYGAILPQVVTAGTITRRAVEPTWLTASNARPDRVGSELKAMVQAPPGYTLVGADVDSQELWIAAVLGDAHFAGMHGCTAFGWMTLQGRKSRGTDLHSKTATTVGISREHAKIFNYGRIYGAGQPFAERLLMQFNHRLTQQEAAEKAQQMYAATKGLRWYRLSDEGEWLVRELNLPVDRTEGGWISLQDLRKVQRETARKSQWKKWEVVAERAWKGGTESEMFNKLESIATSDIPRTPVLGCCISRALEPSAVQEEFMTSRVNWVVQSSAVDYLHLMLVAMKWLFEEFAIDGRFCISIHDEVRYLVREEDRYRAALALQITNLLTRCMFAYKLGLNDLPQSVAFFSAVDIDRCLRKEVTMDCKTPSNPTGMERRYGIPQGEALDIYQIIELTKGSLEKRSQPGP

human DNA polymerase β [11] = biological target: T2, human DNA polymerase β (Homo sapiens, UniProt P06746); settings: from Chang, et al. / Yao, read-out: IC50 Human DNA pol β; cited from earlier work
human DNA polymerase γ [12] = biological target: T1, human DNA polymerase γ; format: biochemical; settings: highest concentration tested 100 μM
From the text: (§1) Nucleosides and nucleoside analogs are usually metabolized within cells to their TP derivatives. Cellular DNA polymerases are routinely responsible for normal nuclear and mitochondrial DNA synthesis and repair. Because the TP metabolites are potential substrates for DNA polymerases, studies were undertaken to determine if L-dC-TP inhibited human DNA polymerases.

human DNA polymerase β [13] = biological target: T2, human DNA polymerase β; format: biochemical; settings: highest concentration tested 100 μM; read-out: IC50 Human DNA pol β
From the text: as §1

HepG2 cells [14] = settings: human
in vitro = settings: human
[15] = Single dose bioavailability of dival-L-dC (IV and oral) in cynomologus monkey; format: in vivo, cynomologus monkey (macaca fascicularis); settings: oral dival-L-dC; analyte = label
From the text: The drug was quantitated in plasma and urine with a liquid chromatography-mass spectrometry (LC-MS) technique.

[16] = tested on: primary human hepatocytes; settings: 24 h, 10 μM
[17] = tested on: human erythroid burst-forming (BFU-E) progenitor cells; format: cell-based; settings: human bone marrow clonogenic assay
From the text: (§2) In particular, anemia and neutropenia are the most common drug-related clinical toxicities associated with the anti-HIV drug zidovudine (ZDV).

[18] = tested on: human granulocyte-macrophage colony-forming (CFU-GM) progenitor cells; format: cell-based; settings: human bone marrow clonogenic assay
From the text: as §2

[19] = Escalating oral dose toxicity of dival-L-dC in monkeys; format: in vivo, cynomologus monkey
From the text: […]. […] Clinical observations were documented daily. Blood samples for hematology and serum chemistries were collected and body weight measured before treatment on Days 1, 4, 7, 10, and 14, and before necropsy on Day 17. After completion of Day 17 evaluations, all animals were euthanized and a complete necropsy performed, including macroscopic examination and comprehensive tissue collection.

[20] = octanol-1 / MilliQ water pH 6.5; Study 1, Study 2; listed as L-dC-3′,5′-divalinyl ester hydrochloride
Procedure: (§3) To 1 mL of this solution, 1 mL of octanol-1 (B) saturated with MilliQ water (A′) was added.
as §3

[21] = Log P study, octanol-1/phosphate buffer pH 7.2
[22] = Oral bioavailability of L-dC via dival-L-dC in cynomologus monkey (HPLC study)
From the text: The drug was quantitated in plasma and in urine using HPLC analysis.

[23] = human
[24] = endogenous polymerase assay, read-out: IC50 Viral DNA pol (WHV DNA polymerase)

## CC(=O)OC[C@@H]1O[C@H](n2ccc(N)nc2=O)C[C@H]1OC(C)=O [3′5′-diacetyl-L-dC, 3′,5′-Di-O-acetyl-2′-deoxy-β-L-cytidine]
[1]
  % BA (bioavailability of L-dC): 23.0 ± 6.5%

## CC(C)[C@H](N)C(=O)O[C@@H]1C[C@@H](n2ccc(N)nc2=O)O[C@H]1CO [3′-val-L-dC, 3′-L-valine ester of 2′-deoxy-β-L-cytidine]
[2]
  Solubility (g/L): >408 g/L
[2]; listed as 3′-valinyl ester hydrochloride of β-L-dC
  Solubility (g/L): > 408 g/L
[2]; water, saturation not obtained, 3 samples, listed as 3′-valinyl ester hydrochloride of β-L-dC
  Concentration of solution of the maximum quantity available, single samples: 1.013 mol/L and 0.996 mol/L and 1.059 mol/L
[3]; oral
  % BA (bioavailability of L-dC): 85.1 ± 24.5%

## CC(C)[C@H](N)C(=O)OC[C@@H]1O[C@H](n2ccc(N)nc2=O)C[C@H]1O [5′-val-L-dC, 5′-L-valine ester of 2′-deoxy-β-L-cytidine hydrochloride]
[4]; dival-L-dC 1000 mg/kg/day oral, Day 1, F
  Tlast: 4 h
[4]; dival-L-dC 1000 mg/kg/day oral, Day 1, M
  Tlast: 4 h
[4]; dival-L-dC 1000 mg/kg/day oral, Day 28, F
  Tlast: 4 h
[4]; dival-L-dC 1000 mg/kg/day oral, Day 28, M
  Tlast: 8 h
[4]; dival-L-dC 2000 mg/kg/day oral, Day 1, F
  Tlast: 8 h
[4]; dival-L-dC 2000 mg/kg/day oral, Day 1, M
  Tlast: 8 h
[4]; dival-L-dC 2000 mg/kg/day oral, Day 28, F
  Tlast: 24 h
[4]; dival-L-dC 2000 mg/kg/day oral, Day 28, M
  Tlast: 8 h
[3]; oral
  % BA (bioavailability of L-dC): 39.0 ± 11.4%
[5]; dival-L-dC 1000 mg/kg/day oral, F
  Tlast (median): 4 h
[5]; dival-L-dC 1000 mg/kg/day oral, M
  Tlast (median): 5 h
[5]; dival-L-dC 2000 mg/kg/day oral, F
  Tlast (median): 8 h

## Nc1ccn([C@H]2C[C@H](O)[C@@H](CO)O2)c(=O)n1 [D-dC, D-Deoxycytidine, reference compound]
[6]
  Vmax of phosphorylation: 2.15 nmol/min/mg protein
[2]
  Solubility (g/L): 272 g/L (≈ 1200 mM)
  Solubility (mol/L): 1.03 mol/L (≈ 234 mg/mL)

## O=c1[nH]c(=O)n([C@@H]2O[C@H](CO)[C@@H](O)[C@@H]2F)cc1I [FIAU, fialuridine, reference compound]
HepG2 cells [7]
  mtDNA, % of Control: 86 % of Control
[8]
  CC50 at 14 days: 4000 nM

## Cc1cn([C@H]2O[C@@H](COP(=O)(O)OP(=O)(O)OP(=O)(O)O)[C@H](O)[C@H]2F)c(=O)[nH]c1=O [L-FMAU-TP]
[9]; [24]
  IC50: 150 ± 50 nM
Human DNA polymerase γ [10]
  IC50: > 50000 nM
Human DNA polymerase β [11]
  IC50: > 50000 nM

## Nc1ccn([C@@H]2C[C@@H](O)[C@H](COP(=O)(O)OP(=O)(O)OP(=O)(O)O)O2)c(=O)n1 [L-dC-TP]
[9]
  IC50: 1820 nM
Human DNA polymerase γ [12]
  IC50: > 100000 nM
Human DNA polymerase β [13]
  IC50: > 100000 nM
HepG2 cells [14]
  apparent intracellular half-life: 15.5 ± 0.34 h
In vitro
  half-life: 15.5 h

## O=c1ccn([C@@H]2C[C@@H](O)[C@H](CO)O2)c(=O)[nH]1 [L-dU, β-L-2′-deoxyuridine]
[15]
  share of drug excreted / recovered dose in urine, by analyte: approximately 2.5%

## O=c1ccn([C@@H]2C[C@@H](O)[C@H](COP(=O)(O)OP(=O)(O)OP(=O)(O)O)O2)c(=O)[nH]1 [L-dU-TP, β-L-2′-deoxyuridine 5′-triphosphate]
[9]
  IC50: 5260 nM
Human DNA polymerase γ [12]
  IC50: > 100000 nM
Human DNA polymerase β [13]
  IC50: > 100000 nM
[16]
  intracellular metabolite level: 43.5 ± 27 µM
HepG2 cells [14]; 24 h, 10 μM
  intracellular metabolite level: 18.2 ± 1.0 µM

## Nc1ncnc2c1ncn2[C@@H]1CC[C@H](COP(=O)(O)OP(=O)(O)OP(=O)(O)O)O1 [L-ddA-TP]
[9]; [24]
  IC50: 2000 ± 300 nM

## Nc1ccn([C@@H]2CS[C@H](COP(=O)(O)OP(=O)(O)OP(=O)(O)O)O2)c(=O)n1 [Lamivudine-TP]
[9]; [24]
  IC50: 500 ± 100 nM
Human DNA polymerase γ [10]
  IC50: 10 nM
Human DNA polymerase β [11]
  IC50: 1200 nM

## Cc1cn([C@H]2C[C@H](O)[C@@H](CO)O2)c(=O)[nH]c1=O [Thd, D-thymidine]
[6]
  Vmax of phosphorylation: 1.26 nmol/min/mg protein

## Cc1cn([C@H]2C[C@H](N=[N+]=[N-])[C@@H](CO)O2)c(=O)[nH]c1=O [ZDV, zidovudine, reference compound]
[17]
  IC50: 700 nM
[18]
  IC50: 1800 nM
HepG2 cells [7]
  mtDNA, % of Control: 119 % of Control
[8]
  CC50 at 14 days: 14000 nM

## Nc1ccn([C@H]2CC[C@@H](CO)O2)c(=O)n1 [ddC, zalcitabine, reference compound]
[8]
  CC50 at 14 days: 20000 nM

## CC(C)[C@H](N)C(=O)OC[C@@H]1O[C@H](n2ccc(N)nc2=O)C[C@H]1OC(=O)[C@@H](N)C(C)C [dival-L-dC, 3′,5′-L-divaline ester of 2′-deoxy-β-L-cytidine]
[2]; listed as 3′,5′-divalinyl ester hydrochloride of β-L-dC
  Solubility (mol/L): more than 2.5 mol/L
[4]; 28 day oral, rat
  NOAEL: < 500 mg/kg
[19]; 20 mg/kg oral, each animal
  loss in body weight following the initial dose on Day 1: approximately 0.6 kg
[19]; cumulative, all four monkeys
  BUN decrease at Day 17 compared to Day 1: ~43%
[19]; single oral dose by gavage (escalation 20-2000 mg/kg), monkey
  NOAEL: 2000 mg/kg
[3]
  share of the oral dose absorbed: approximately 73%
[3]; oral
  share of the absorbed ester converted to L-dC: more than 99%
[3]; oral, coadministered with 10 mg/kg L-dT
  % BA w/ L-dT: 74.6 ± 9.9%
[3]; oral, listed as 3′,5′-divaline ester of L-dC
  % BA (bioavailability of L-dC): higher oral bioavailability than the parent L-dC
[3]; oral, listed as L-dC di-valine
  % BA (bioavailability of L-dC): 72.7 ± 22.0%
[20]
  P′ (B/A′): 1.80 × 10^−3 and 1.77 × 10^−3
[21]
  conversion detected in the organic phase during log P experiment: 14%
[22]; after 72 hours
  administered oral dose recovered in urine: 31%
[22]; within 8 hours
  administered oral dose recovered in urine: Approximately 26%
[23]
  plasma protein binding: 13.3%±2.6%
